{"source": "patent US8703483B2", "about": "“Reagents and methods for using human embryonic stem cells to evaluate toxicity of pharmaceutical compounds and other chemicals” (Wisconsin Alumni Research Foundation, priority 2006, dated 2014)", "key": {"[1]": {"conditions": "supplementation prior to pregnancy; cited from earlier work"}, "[2]": {"tested_on": "human embryonic stem cells", "assay": "Metabolite profiling (LC/ESI-TOF mass spectrometry) of extracellular media of hESCs treated with alcohol", "format": "cell-based", "conditions": "for Putative kynurenine (exact neutral mass 208.0816) upregulation: day four", "description": "Binned masses were annotated in silico by querying the neutral masses in several different databases. These databases included Metlin, Biological Magnetic Resonance Data Bank (BMRB), NIST Chemistry WebBook, and the Human Metabolome Database. A mass was considered identified when its neutral mass was within 10 ppm of a known compound annotated in one of the databases listed above."}, "[3]": {"tested_on": "H1/NIH code WA01 hES cells", "assay": "Quantitative real-time PCR of epigenetic regulators and developmental genes in VPA-treated hESCs", "format": "cell-based, human", "conditions": "1 mM VPA treated", "protocol": "Treated and control H1/NIH code WA01 hES cells (passage 41) were analyzed by real-time PCR, and each treatment group was paired with a corresponding control group that received the standard growth media combination of CM+bFGF without VPA. In these studies, total cellular RNA was extracted from cells harvested at 24 hours (24 H), 4 days (4 D) and 8 days (EC) using the RNA Easy Kit (Qiagen, Valencia, Calif.) according to the manufacturer's instructions.\nExpression levels of candidate test genes and a housekeeping gene (Beta-2-microglobulin) were evaluated by quantitative real-time PCR using a DNA Engine-Opticon 2 Detection System (MJ Research, Watertown, Mass.). The housekeeping gene acts as an internal control for normalization of RNA levels. The primers used for real-time PCR reactions were designed using Beacon Designer software (Premier Biosoft International, Palo Alto, Calif.). RNA was reverse transcribed using iScript cDNA Synthesis kit (Bio-Rad, Hercules, Calif.), wherein each cDNA synthesis reaction (20 μL) included 4 μL of 5× iScript reaction mix, 1 μL of iScript reverse transcriptase, and 2 μL of RNA. PCR was performed on cDNA in PCR reaction mixtures (25 μL) each containing 12.5 μL of Supermix (contains dNTPs, Taq DNA polymerase, SYBR Green I, and fluorescein), 250 nM forward primer, 250 nM reverse primer, and 1.6 μL RT-PCR products. Melting curve analysis and agarose gel electrophoresis were performed after real-time PCR reaction to monitor PCR specificity, wherein PCR products were detected with SYBR Green I using the iQ SYBR Green Supermix kit (Bio-Rad).\nQuantifying the relative expression of real-time PCR was performed using the 2-ΔΔCt method (Livak & Schmittgen, 2001, Methods 25:402-8), and a general linear model was employed to fit the expression data. The PROC GLM procedure in SAS (version 8.2; SAS Institute, Cary, N.C.) was used to estimate least squares means in expression between treated and untreated hESCs and P<0.05 was considered statistically significant\nReal-time PCR was conducted on samples from 24 hours (24 H), 4 days (4 D) and 8 days (EC) after VPA treatment to investigate expression levels of epigenetic regulators (such as DNA methyltransferase-1, DNMT-1, BMI-1, EED) and critical transcription factors responsible for embryonic patterning and neurodevelopment (RUNX2, BMP7, FGF8, CBX2, GLI3, SSH and SP8) in human embryonic stem cells."}, "[4]": {"tested_on": "human embryonic stem cells", "assay": "Viability and pluripotency (Oct-4, morphology) of hESCs after valproate exposure", "format": "cell-based", "conditions": "hESCs remained viable for multiple passages following exposure"}, "[5]": {"tested_on": "neuronal precursors derived from hESCs", "assay": "Metabolite profiling of neural precursors derived from hESCs treated with valproate", "format": "cell-based, human", "conditions": "1 mM valproate", "description": "Metabolomic assessment of teratogens on embryonic development is not limited exclusively to hESCs."}, "[6]": {"tested_on": "undifferentiated human embryonic stem cells (H1 and H9 hESC)", "assay": "Metabolite profiling (LC/ESI-TOF-MS) of supernatant of hESCs treated with valproate", "format": "cell-based", "protocol": "Masses were binned together if they were within 10 ppm and eluted within a 2 minutes retention time window. […] Binning of the data is required for statistical analysis and comparison of masses across the entire experiment. If multiple peaks with the same mass at the same retention time within a single sample were detected by Mass Hunter, they were averaged to assist data analysis.\nAs used herein, a mass was considered to be the same across LC/ESI-TOF-MS runs using a simple algorithm that first sorts the data by mass and retention time. […] If a series of measurements fit this definition it was considered to be from the same compound. If either the mass or the retention time varied by more than the limits listed above it was considered to be a different compound and given a new unique designation."}, "[7]": {"conditions": "0.3% alcohol, four days, p<0.05"}}, "data": [{"molecule": "Nc1nc2ncc(CNc3ccc(C(=O)N[C@@H](CCC(=O)O)C(=O)O)cc3)nc2c(=O)[nH]1", "note": "[Folic acid]", "values": [{"measurement": "Reduction of the incidence of spina bifida", "setting": "[1]", "value": 70, "unit": "%"}]}, {"molecule": "CCO", "note": "[ethanol, reference compound]", "values": [{"measurement": "8-methoxykynurenate (219.0532) change", "setting": "[2]; 0.1% alcohol, four days, p<0.05", "value": "upregulated"}, {"measurement": "Putative kynurenine (exact neutral mass 208.0816) upregulation", "setting": "[2]; 0.1% treatment, p=0.001", "value": "three-fold"}, {"measurement": "Compounds significantly different (p<0.05) in at least one treatment", "setting": "[2]; 0.1 and 0.3% ethanol, of 49,481 mass signals", "value": "1,860 compounds"}, {"measurement": "5-hydroxy-L-tryptophan (220.0848) change in comparison to untreated controls", "setting": "[2]; [7]", "value": "significant downregulation"}, {"measurement": "8-methoxykynurenate (219.0532) change", "setting": "[2]; [7]", "value": "upregulated"}, {"measurement": "Putative kynurenine (exact neutral mass 208.0816) upregulation", "setting": "[2]; 0.3% treatment, p=0.002", "value": "three-fold"}]}, {"molecule": "CCCC(CCC)C(=O)O", "note": "[valproate]", "values": [{"measurement": "BMI-1 gene expression level (target gene/Beta-2-Microglobulin)", "setting": "[3]; 4 D", "value": 0.112}, {"measurement": "BMP7 gene expression level (target gene/Beta-2-Microglobulin)", "setting": "[3]; 4 D", "value": 0.342}, {"measurement": "CBX2 gene expression level (target gene/Beta-2-Microglobulin)", "setting": "[3]; 4 D", "value": 1.1881}, {"measurement": "DNMT1 gene expression level (target gene/Beta-2-Microglobulin)", "setting": "[3]; 4 D", "value": 0.002}, {"measurement": "EED gene expression level (target gene/Beta-2-Microglobulin)", "setting": "[3]; 4 D", "value": 0.185}, {"measurement": "GLI3 gene expression level (target gene/Beta-2-Microglobulin)", "setting": "[3]; 4 D", "value": 0.774}, {"measurement": "H19 gene expression level (target gene/Beta-2-Microglobulin)", "setting": "[3]; 4 D", "value": 0.846}, {"measurement": "RUNX2 gene expression level (target gene/Beta-2-Microglobulin)", "setting": "[3]; 4 D", "value": 4.020}, {"measurement": "SP8 gene expression level (target gene/Beta-2-Microglobulin)", "setting": "[3]; 4 D", "value": 1.703}, {"measurement": "Shh gene expression level (target gene/Beta-2-Microglobulin)", "setting": "[3]; 4 D", "value": 0.533}, {"measurement": "BMI-1 gene expression level (target gene/Beta-2-Microglobulin)", "setting": "[3]; 24 H", "value": 0.252}, {"measurement": "BMP7 gene expression level (target gene/Beta-2-Microglobulin)", "setting": "[3]; 24 H", "value": 0.093}, {"measurement": "CBX2 gene expression level (target gene/Beta-2-Microglobulin)", "setting": "[3]; 24 H", "value": 0.245}, {"measurement": "DNMT1 gene expression level (target gene/Beta-2-Microglobulin)", "setting": "[3]; 24 H", "value": 0.624}, {"measurement": "EED gene expression level (target gene/Beta-2-Microglobulin)", "setting": "[3]; 24 H", "value": 0.342}, {"measurement": "FGF8 gene expression level (target gene/Beta-2-Microglobulin)", "setting": "[3]; 24 H", "value": 0.801}, {"measurement": "GLI3 gene expression level (target gene/Beta-2-Microglobulin)", "setting": "[3]; 24 H", "value": 0.015}, {"measurement": "H19 gene expression level (target gene/Beta-2-Microglobulin)", "setting": "[3]; 24 H", "value": 0.006}, {"measurement": "RUNX2 gene expression level (target gene/Beta-2-Microglobulin)", "setting": "[3]; 24 H", "value": 1.769}, {"measurement": "SP8 gene expression level (target gene/Beta-2-Microglobulin)", "setting": "[3]; 24 H", "value": 0.235}, {"measurement": "Shh gene expression level (target gene/Beta-2-Microglobulin)", "setting": "[3]; 24 H", "value": 0.562}, {"measurement": "BMI-1 gene expression level (target gene/Beta-2-Microglobulin)", "setting": "[3]; EC (8 days)", "value": 1.071}, {"measurement": "BMP7 gene expression level (target gene/Beta-2-Microglobulin)", "setting": "[3]; EC (8 days)", "value": 1.664}, {"measurement": "CBX2 gene expression level (target gene/Beta-2-Microglobulin)", "setting": "[3]; EC (8 days)", "value": 1.946}, {"measurement": "DNMT1 gene expression level (target gene/Beta-2-Microglobulin)", "setting": "[3]; EC (8 days)", "value": 1.124}, {"measurement": "EED gene expression level (target gene/Beta-2-Microglobulin)", "setting": "[3]; EC (8 days)", "value": 1.769}, {"measurement": "FGF8 gene expression level (target gene/Beta-2-Microglobulin)", "setting": "[3]; EC (8 days)", "value": 0.837}, {"measurement": "GLI3 gene expression level (target gene/Beta-2-Microglobulin)", "setting": "[3]; EC (8 days)", "value": 1.918}, {"measurement": "H19 gene expression level (target gene/Beta-2-Microglobulin)", "setting": "[3]; EC (8 days)", "value": 2.756}, {"measurement": "RUNX2 gene expression level (target gene/Beta-2-Microglobulin)", "setting": "[3]; EC (8 days)", "value": 2.434}, {"measurement": "SP8 gene expression level (target gene/Beta-2-Microglobulin)", "setting": "[3]; EC (8 days)", "value": 5.808}, {"measurement": "Effect of treatment on hESC viability", "setting": "[4]", "value": "not detrimental"}, {"measurement": "Compounds differentially secreted in treated neuronal precursors versus control", "setting": "[5]", "value": "Approximately 135 compounds"}, {"measurement": "Compounds with statistically-significant differences in at least one time point", "setting": "[6]; 22 μM valproate, of 3,241 mass signals (3%)", "value": 110, "unit": "compounds"}, {"measurement": "Small molecules absent in treated groups", "setting": "[6]; VPA, 24 hours, vs untreated controls", "value": "approximately 40"}]}]}
